{
  "source": "patent US20060041962A1",
  "about": "“Genes and uses thereof to modulate secondary metabolite biosynthesis” (priority 2002, published 2006)",
  "key": {"tobacco BY-2 cells [1]": {"test_system": "tobacco BY-2 cells", "experiment": "Nicotine alkaloid accumulation in methyl jasmonate elicited BY-2 cells (GC-MS)", "format": "cell-based, Nicotiana tabacum", "description": "(§1) Nicotiana tabacum BY-2 cells were cultured in modified Linsmaier-Skoog (LS) medium (Linsmaier & Skoog, 1965), as described by Nagata & Kumagai (1999). First, the growth curve of BY-2 cell culture was determined (FIG. 2) and the late exponential phase was used in elicitation experiments. Since the ability of high auxin concentration to inhibit the biosynthesis of nicotine is well known (Hibi et al., 1994; Ishikawa, et al., 1994), the six-day-old culture was prior elicitation washed and diluted 10-fold with fresh hormone free medium. After 12 hours, the cells were treated with methyl jasmonate (MeJA). MeJA (cis-form, Duchefa M0918) dissolved in dimethyl sulfoxide (DMSO) and was added to the culture medium at a final concentration of 50 μM. Same amount of DMSO alone served as a control. Samples for cDNA-AFLP analysis were taken at 0, 1, 2, 3, 4, 5, 6, 7, 8, 9, 10, 11, 12, 13, 14, 15, 16, 18, 20, 24, 36, 48, and 98 hours after jasmonate addition or at 0, 2, 4, 6, 8, 10, 12, 14, 16, 24, 36, 48, and 98 hours after DMSO addition, respectively. For alkaloid analysis, the samples were taken at 0, 12, 14, 24, 48 and 98 hours. Three replicate shake flasks pooled together yielded the total culture volume of 75 ml. After filtering (Miracloth) under vacuum the cells were lyophilized. Lyophilized cell samples were extracted for GC-MS analysis by a modified method described by Furuya et al. (1971). Cells were weighed and 25 μg of internal standard (5α-cholestan) was added. The samples were made alkaline with ammonia (10% (v/v), 1 ml) and water (2 ml) was added. Alkaloids were extracted by vortexing with 2 ml of dicloromethane. After 30 min the samples were centrifuged (2000 rpm, 10 min) and the lower organic layer was separated and transferred into glass vials. The samples were concentrated to 50 μl and 3 μl aliquots were injected to GC-MS. In some cases (for derivatization of free fatty acids and more polar compounds) the samples were silylated prior to GC-MS analysis. After evaporation to dryness, 25 μl of dichloromethane was added and silylation was performed by N-methyl-N-(trimethylsilyl)-trifluoro-acetamide (Pierce, Rockford, USA) at 120° C. for 20 min."}, "tobacco BY-2 cells [2]": {"test_system": "tobacco BY-2 cells", "experiment": "cDNA-AFLP transcript profiling of jasmonate-elicited BY-2 cells", "format": "cell-based, Nicotiana tabacum", "settings": "50 μM methyl jasmonate vs DMSO-treated cells, approximately 20,000 tags analyzed", "description": "Total RNA was prepared by LiCl precipitation (Sambrook, 1989). Starting from 5 μg total RNA, first-strand cDNA was synthesized by reverse transcription with a biotinylated oligo-dT25 primer (Genset, Paris, France) and Superscript II (Life Technologies, Gaithersburg, Md.). Second-strand synthesis was performed by strand displacement with Escherichia coli ligase (Life Technologies), DNA polymerase I (USB, Cleveland, Ohio) and RNAse-H (USB).\n500 nanograms of double-stranded cDNA was used for AFLP analysis as described (Vos et al., 1995; Bachem et al., 1996) with modifications. The restriction enzymes used were BstYI and MseI (Biolabs) and the digestion was performed in two separate steps. […]\nScanned gel images were quantitatively analyzed using the AFLP QuantarPro image analysis software (Keygene N. V., Wageningen, N L). This software was designed for accurate lane definition, fragment detection, and quantification of band intensities. All visible AFLP fragments were scored and individual band intensities in each lane were measured. […] The correction factors were calculated based on constant bands throughout the time course. […] A coefficient of variation (CV) was calculated by dividing […]. […]"}, "NsPMT2 promoter": {"test_system": "NsPMT2 promoter", "experiment": "NsPMT2 promoter EGFP-GUS reporter in transgenic BY-2 cell line 7 (GUS activity)", "format": "cell-based, Nicotiana sylvestris", "text": "The PMT gene encodes the enzyme putrescine N-methyltransferase, catalysing the first committed step in the production of nicotinic alkaloids. Transcripts of Nicotiana sp. PMT genes are reported to be up regulated by methyl jasmonate. […] We have applied this knowledge and constructed a new reporter construct, called pHGWFS7-ppmt2, harbouring a EGFP-GUS fusion reporter gene (in Gateway® vector pHGWFS7; Karimi et al., Trends Plant Sci. 2002, 7(5):193-195), driven by the NsPMT2 promoter. To this end, primers were designed for the Adapter attB PCR protocol (InVitroGen) to amplify the NsPMT2 5′flanking region covering nucleotides −1713 to +3 (Table 3).\nThe pHGWFS7-ppmt2 construct was subsequently introduced in the ternary Agrobacterium tumefaciens transformation system, LBA4404.pBBR1-MCS-5.virGN54D (van der Fits et al., Plant Mol. Biol. 2000, 43(4):495-502), allowing efficient transformation of tobacco BY-2 cell cultures. Different independent transgenic lines were established and the jasmonate inducibility of the promoter in these transgenic BY-2 cells was confirmed (Table 4).\nTo illustrate the potential of this approach, BY-2-pmt2 cell line 7 was double transformed with the pK7WGD2-C330 construct, harbouring the MJM tag with SEQ ID No 148, an AP2-domain transcription factor encoding gene (also designated as C330 in this application), driven by the constitutive p35S promoter."}, "[3]": {"test_system": "BY-2 reporter cell line (line 7)", "experiment": "Nicotine alkaloid content of BY-2 reporter cell line super-transformed with C330", "format": "cell-based, Nicotiana tabacum", "settings": "line 7 + C330 vector, −2,4D + MeJA", "description": "In a next step, we evaluated if there was a correlation between the GUS-activity in the BY-2 reporter cell line and nicotine alkaloid accumulation. […] Measurements in tables 6A and 6B were carried out in the presence or absence of synthetic auxins. “−2,4 D” means in the absence of dichlorophenoxy-acetic acid. “NAA” means in the presence of alfa-naphtalene-acetic acid. “DW” means dry weight, “MeJA” is with the addition of the elicitor methyl jasmonate, “DMSO” means with the addition of dimethylsulfoxide instead of MeJA.\nas §1"}},
  "data": [
    {"smiles": "CC/C=C\\CC1C(=O)CCC1CC(=O)OC", "note": "(centres unmarked) [MeJA, methyl jasmonate]", "values": [
      {"measurement": "nicotine, anabasine, anatalline and anatabine content", "setting": "tobacco BY-2 cells [1]; BY-2 cells elicited vs control samples", "result": "marked increase"},
      {"measurement": "highest concentration of anatabine", "setting": "tobacco BY-2 cells [1]; BY-2 cells, 50 μM MeJA", "result": "800 µg/g (d.w.)"},
      {"measurement": "maximum concentration of nicotine relative to anatabine (dry weight basis)", "setting": "tobacco BY-2 cells [1]; BY-2 cells, 50 μM MeJA", "result": 4, "unit": "%"},
      {"measurement": "start of anatabine accumulation after elicitation", "setting": "tobacco BY-2 cells [1]; BY-2 cells, 50 μM MeJA", "result": 24, "unit": "h"},
      {"measurement": "start of nicotine accumulation after elicitation", "setting": "tobacco BY-2 cells [1]; BY-2 cells, 50 μM MeJA", "result": 14, "unit": "h"},
      {"measurement": "time after which anabasine and two anatalline isomers increased", "setting": "tobacco BY-2 cells [1]; BY-2 cells, 50 μM MeJA", "result": 48, "unit": "h"},
      {"measurement": "differential transcript tags", "setting": "tobacco BY-2 cells [2]", "result": 591},
      {"measurement": "GUS activity", "setting": "NsPMT2 promoter; BY-2 cell line 7, +MeJA, 0 h (Table 4)", "result": "0.8 ± 1.0", "unit": "units/mg protein/minute"},
      {"measurement": "GUS activity", "setting": "NsPMT2 promoter; BY-2 cell line 7, +MeJA, 4 h (Table 4)", "result": "2.0 ± 0.3", "unit": "units/mg protein/minute"},
      {"measurement": "GUS activity", "setting": "NsPMT2 promoter; BY-2 cell line 7, +MeJA, 8 h (Table 4)", "result": "6.4 ± 0.3", "unit": "units/mg protein/minute"},
      {"measurement": "GUS activity", "setting": "NsPMT2 promoter; BY-2 cell line 7, +MeJA, 14 h (Table 4)", "result": "29.1 ± 1.9", "unit": "units/mg protein/minute"},
      {"measurement": "GUS activity", "setting": "NsPMT2 promoter; BY-2 cell line 7, +MeJA, 24 h (Table 4)", "result": "92.2 ± 6.4", "unit": "units/mg protein/minute"},
      {"measurement": "GUS activity", "setting": "NsPMT2 promoter; BY-2 line 7, +MeJA, 0 h (Table 5)", "result": "0.0 ± 0.0", "unit": "units/mg protein/minute"},
      {"measurement": "GUS activity", "setting": "NsPMT2 promoter; BY-2 line 7, +MeJA, 24 h (Table 5)", "result": "399.0 ± 56.4", "unit": "units/mg protein/minute"},
      {"measurement": "GUS activity", "setting": "NsPMT2 promoter; BY-2 line 7, +MeJA, 48 h (Table 5)", "result": "663.0 ± 33.6", "unit": "units/mg protein/minute"},
      {"measurement": "GUS activity", "setting": "NsPMT2 promoter; BY-2 line 7-C330, +MeJA, 0 h", "result": "1.0 ± 0.1", "unit": "units/mg protein/minute"},
      {"measurement": "GUS activity", "setting": "NsPMT2 promoter; BY-2 line 7-C330, +MeJA, 24 h", "result": "276.7 ± 55.9", "unit": "units/mg protein/minute"},
      {"measurement": "GUS activity", "setting": "NsPMT2 promoter; BY-2 line 7-C330, +MeJA, 48 h", "result": "347.8 ± 2.0", "unit": "units/mg protein/minute"},
      {"measurement": "Anatabine", "setting": "[3]; 0 h", "result": 0.038, "unit": "mg/g DW"},
      {"measurement": "Nicotine", "setting": "[3]; 0 h", "result": 0.008, "unit": "mg/g DW"},
      {"measurement": "Anabasine", "setting": "[3]; 24 h", "result": 0.099, "unit": "Mg/g DW"},
      {"measurement": "Anatabine", "setting": "[3]; 24 h", "result": 2.065, "unit": "mg/g DW"},
      {"measurement": "Nicotine", "setting": "[3]; 24 h", "result": 0.271, "unit": "mg/g DW"},
      {"measurement": "Anabasine", "setting": "[3]; 48 h", "result": 0.297, "unit": "Mg/g DW"},
      {"measurement": "Anatabine", "setting": "[3]; 48 h", "result": 3.541, "unit": "mg/g DW"},
      {"measurement": "Nicotine", "setting": "[3]; 48 h", "result": 0.283, "unit": "mg/g DW"}
    ]}
  ]
}
